This note sets out measurements from patent US20210269451A1, “PYRIDINYL HETEROCYCLYL COMPOUNDS FOR THE TREATMENT OF AUTOIMMUNE DISEASE” (Hoffmann-La Roche Inc., priority 2018, published 2021).

pIC50: −log10 of the molar value. A value given as a limit tells only on which side of the number the result lay.

The target of the test is T1, human TLR7 (Homo sapiens, UniProt Q9NYK1).
T1 construct: host or cells: HEK293-Blue-hTLR-7 (HEK293)
T1 sequence (Q9NYK1 27-1049): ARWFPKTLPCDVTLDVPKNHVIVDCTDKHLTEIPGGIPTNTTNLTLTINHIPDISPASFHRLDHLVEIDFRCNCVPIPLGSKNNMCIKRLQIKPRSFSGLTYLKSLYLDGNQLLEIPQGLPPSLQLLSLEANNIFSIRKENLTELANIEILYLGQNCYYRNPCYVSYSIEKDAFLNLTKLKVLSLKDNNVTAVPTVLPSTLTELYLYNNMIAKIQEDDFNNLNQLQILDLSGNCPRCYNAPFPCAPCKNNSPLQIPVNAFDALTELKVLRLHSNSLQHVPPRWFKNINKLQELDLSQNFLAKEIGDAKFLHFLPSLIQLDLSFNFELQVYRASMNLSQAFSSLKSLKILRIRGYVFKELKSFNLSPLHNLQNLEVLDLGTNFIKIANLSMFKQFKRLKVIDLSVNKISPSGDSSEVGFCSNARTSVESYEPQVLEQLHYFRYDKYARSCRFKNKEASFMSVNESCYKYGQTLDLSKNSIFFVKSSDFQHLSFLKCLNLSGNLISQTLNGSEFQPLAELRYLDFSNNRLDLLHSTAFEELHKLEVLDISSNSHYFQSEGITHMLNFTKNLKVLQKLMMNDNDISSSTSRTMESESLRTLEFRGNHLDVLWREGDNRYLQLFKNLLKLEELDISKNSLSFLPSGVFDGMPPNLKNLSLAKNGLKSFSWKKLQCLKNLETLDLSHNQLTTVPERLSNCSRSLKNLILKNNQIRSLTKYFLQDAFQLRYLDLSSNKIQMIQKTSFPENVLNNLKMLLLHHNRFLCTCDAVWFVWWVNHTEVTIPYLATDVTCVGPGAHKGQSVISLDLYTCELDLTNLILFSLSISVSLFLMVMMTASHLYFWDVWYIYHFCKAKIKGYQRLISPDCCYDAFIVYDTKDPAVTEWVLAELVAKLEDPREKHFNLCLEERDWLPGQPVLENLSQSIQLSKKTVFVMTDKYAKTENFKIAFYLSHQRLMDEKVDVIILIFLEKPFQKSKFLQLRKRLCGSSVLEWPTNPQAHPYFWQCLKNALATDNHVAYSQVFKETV
Kind of test: HEK293-Blue-hTLR-7 cells assay. The format is cell-based. As to conditions: HEK293-Blue-hTLR7 cells, R848 stimulation, 20 hrs, SEAP reporter; read-out: HEK/hTLR7 IC50. As to the method:
The following tests were carried out in order to determine the activity of the compounds of formula (I) and (Ia) in HEK293-Blue-hTLR-7/8/9 cells assay.
HEK293-Blue-hTLR-7 cells assay:
A stable HEK293-Blue-hTLR-7 cell line was purchased from InvivoGen (Cat. #: hkb-htlr7, San Diego, Calif., USA). These cells were originally designed for studying the stimulation of human TLR7 by monitoring the activation of NE-κB. A SEAP (secreted embryonic alkaline phosphatase) reporter gene was placed under the control of the IFN-β minimal promoter fused to five NE-κB and AP-1-binding sites. The SEAP was induced by activating NE-κB and AP-1 via stimulating HEK-Blue hTLR7 cells with TLR7 ligands. Therefore the reporter expression was declined by TLR7 antagonist under the stimulation of a ligand, such as R848 (Resiquimod), for incubation of 20 hrs. The cell culture supernatant SEAP reporter activity was determined using QUANTI-Blue™ kit (Cat. #: rep-qbl, Invivogen, San Diego, Ca, USA) at a wavelength of 640 nm, a detection medium that turns purple or blue in the presence of alkaline phosphatase.
HEK293-Blue-hTLR7 cells were incubated at a density of 250,000-450,000 cells/mL in a volume of 170 μL in a 96-well plate in Dulbecco's Modified Eagle's medium (DMEM) containing 4.5 g/L glucose, 50 U/mL penicillin, […], […], 2 mM L-glutamine, 10% (v/v) heat-inactivated fetal bovine serum with addition of 20 μL test compound in a serial dilution in the presence of final DMSO at 1% and 10 μL of 20 uM R848 in above DMEM, perform incubation under 37° C. in a CO2 incubator for 20 hrs. Then 20 μL of the supernatant from each well was incubated with 180 μL Quanti-blue substrate solution at 37° C. for 2 hrs and the absorbance was read at 620˜655 nm using a spectrophotometer. The signalling pathway that TLR7 activation leads to downstream NE-κB activation has been widely accepted, and therefore similar reporter assay was modified for evaluating TLR7 antagonist.
As for `C[C@@H]1CN(c2ccc(C#N)c3ncccc23)C[C@H](CN2CC3(C2)CN(c2ccnc(C4CC4)c2)CCO3)O1` [Example 3, 5-[(2S,6R)-2-[[8-(2-cyclopropyl-4-pyridyl)-5-oxa-2,8-diazaspiro[3.5]nonan-2-yl]methyl]-6-methyl-morpholin-4-yl]quinoline-8-carbonitrile], the pIC50 was over 8.52. As to `Cc1cc(N2CC[C@@H](NC[C@H]3CN(c4ccc(C#N)c5ncccc45)C[C@@H](C)O3)C2)cc(CO)n1` [Example 28], the pIC50 is 6.91.

Regarding `Cc1cc(N2CCN(C[C@H]3CN(c4ccc(C#N)c5ncccc45)C[C@@H](C)O3)CC2)cc(N)n1` [Example 40, 5-[(2S,6R)-2-[[4-(2-amino-6-methyl-4-pyridyl)piperazin-1-yl]methyl]-6-methyl-morpholin-4-yl]quinoline-8-carbonitrile], the pIC50 is 8.10. For the compound `Cc1cc(N2CC[C@H](F)[C@H](NC[C@H]3CN(c4ccc(C#N)c5ncccc45)C[C@@H](C)O3)C2)cc(CO)n1` [Example 33], the pIC50 was 7.92. Consider `Cc1cc(N2CCC23CN(C[C@H]2CN(c4ccc(C#N)c5ncccc45)C[C@@H](C)O2)C3)cc(CO)n1` [Example 12], for which the pIC50 was 7.89.

Turning to `Cc1cc(C2CCN(C[C@H]3CN(c4ccc(C#N)c5ncccc45)C[C@@H](C)O3)CC2)cc(N)n1` [Example 43, 5-[(2S,6R)-2-[[4-(2-amino-6-methyl-4-pyridyl)-1-piperidyl]methyl]-6-methyl-morpholin-4-yl]quinoline-8-carbonitrile], the pIC50 is 8.15. Then `Cc1cc(N2CCC23CN(C[C@H]2CN(c4ccc(C#N)c5ncccc45)C[C@@H](C)O2)C3)cc(C)n1` [Example 8], with 8.15. Take `C[C@@H]1CN(c2ccc(C#N)c3ncccc23)C[C@H](CN[C@@H]2CCCN(c3ccnc(N)c3)C2)O1` [Example 21, 5-[(2S,6R)-2-[[[(3R)-1-(2-amino-4-pyridyl)-3-piperidyl]amino]methyl]-6-methyl-morpholin-4-yl]quinoline-8-carbonitrile]: the pIC50 is 7.21.

With `Cc1cc(N2CC3(CN(C[C@H]4CN(c5ccc(C#N)c6ncccc56)C[C@@H](C)O4)C3)C2)cc(CO)n1` [Example 1, 5-[(2S,6R)-2-[[2-[2-(hydroxymethyl)-6-methyl-4-pyridyl]-2,6-diazaspiro[3.3]heptan-6-yl]methyl]-6-methyl-morpholin-4-yl]quinoline-8-carbonitrile], the pIC50 was 7.55.

As for `C[C@@H]1CN(c2ccc(C#N)c3ncccc23)C[C@H](CN2CC3(C2)CN(c2ccnc(C4CC4)c2)C3)O1` [Example 49, 5-[(2S,6R)-2[[2-(2-cyclopropyl-4-pyridyl)-2,6-diazaspiro[3.3]heptan-6-yl]methyl]-6-methyl-morpholin-4-yl]quinoline-8-carbonitrile], the pIC50 was 7.89. Then `Cc1cc(N2CCC(NC[C@H]3CN(c4ccc(C#N)c5ncccc45)C[C@@H](C)O3)CC2)cc(CO)n1` [Example 23], with 6.64; and `Cc1cc(N2CC3(CN(C[C@H]4CN(c5ccc(C#N)c6ncccc56)C[C@@H](C)O4)C3)C2)cc(C(C)O)n1` (stereo partly drawn) [Example 44, 5-[(2S,6R)-2-[[2-[2-(1-hydroxyethyl)-6-methyl-4-pyridyl]-2,6-diazaspiro[3.3]heptan-6-yl]methyl]-6-methyl-morpholin-4-yl]quinoline-8-carbonitrile], with 7.70. As to `Cc1cc(N2CCOC3(CN(C[C@H]4CN(c5ccc(C#N)c6ncccc56)C[C@@H](C)O4)C3)C2)cc(C)n1` [Example 14], the pIC50 is over 8.52.

As to `Cc1cc(NC2CCN(C[C@H]3CN(c4ccc(C#N)c5ncccc45)C[C@@H](C)O3)CC2)cc(CO)n1` [Example 5], the pIC50 was 7.23.

As to `Cc1cc(NC2CCN(C[C@H]3CN(c4ccc(C#N)c5ncccc45)C[C@@H](C)O3)C2)cc(CO)n1` (stereo partly drawn) [Example 6], the pIC50 was 7.36. Then `C[C@@H]1CN(c2ccc(C#N)c3ncccc23)C[C@H](CNC2CCN(c3ccnc(N)c3)CC2)O1` [Example 20, 5-[(2S,6R)-2-[[[1-(2-amino-4-pyridyl)-4-piperidyl]amino]methyl]-6-methyl-morpholin-4-yl]quinoline-8-carbonitrile], with 6.70.

For the compound `Cc1cc(N2CC(NC[C@H]3CN(c4ccc(C#N)c5ncccc45)C[C@@H](C)O3)C2)cc(CO)n1` [Example 30], the pIC50 was 7.19. Then `CC(O)c1cc(N2CC3(CN(C[C@H]4CN(c5ccc(C#N)c6ncccc56)C[C@@H](C)O4)C3)C2)ccn1` (stereo partly drawn) [Example 46, 5-[(2S,6R)-2-[[2-[2-(1-hydroxyethyl)-4-pyridyl]-2,6-diazaspiro[3.3]heptan-6-yl]methyl]-6-methyl-morpholin-4-yl]quinoline-8-carbonitrile], with 7.49; and `Cc1cc(NC2CN(C[C@H]3CN(c4ccc(C#N)c5ncccc45)C[C@@H](C)O3)C2)cc(C)n1` [Example 7], with 7.59; and `Cc1cc(N2CCC[C@@H](NC[C@H]3CN(c4ccc(C#N)c5ncccc45)C[C@@H](C)O3)C2)cc(CO)n1` [Example 24], with 7.59. Then `C[C@@H]1CN(c2ccc(C#N)c3ncccc23)C[C@H](CN2CCN(c3cc(N)nc(CO)c3)CC2)O1` [Example 45, 5-[(2S,6R)-2-[[4-[2-amino-6-(hydroxymethyl)-4-pyridyl]piperazin-1-yl]methyl]-6-methyl-morpholin-4-yl]quinoline-8-carbonitrile], with 7.41; and `Cc1cc(N2CCC[C@H](NC[C@H]3CN(c4ccc(C#N)c5ncccc45)C[C@@H](C)O3)C2)cc(CO)n1` [Example 25], with 7.47. Then `C[C@@H]1CN(c2ccc(C#N)c3ncccc23)C[C@H](CN2CC3(C2)CN(c2ccnc(CO)c2)CCO3)O1` [Example 51], with over 8.52; and `Cc1cc(N2CC[C@H](NC[C@H]3CN(c4ccc(C#N)c5ncccc45)C[C@@H](C)O3)C2)cc(CO)n1` [Example 29], with 6.81. Take `Cc1cc(N2CCOC3CN(CC4CN(c5ccc(C#N)c6ncccc56)CC(C)O4)CC32)cc(C)n1` (single isomer, unassigned) [Example 17A]: the pIC50 was over 8.52. Then `Cc1cc(N2CCC[C@H](N(C)C[C@H]3CN(c4ccc(C#N)c5ncccc45)C[C@@H](C)O3)C2)cc(CO)n1` [Example 38], with 7.46; and `C[C@@H]1CN(c2ccc(C#N)c3ncccc23)C[C@H](CN2CCN(c3ccnc(N)c3)CC2)O1` [Example 19, 5-[(2S,6R)-2-[[4-(2-amino-4-pyridyl)piperazin-1-yl]methyl]-6-methyl-morpholin-4-yl]quinoline-8-carbonitrile], with 8.22; and `CNc1cc(N2CCN(C[C@H]3CN(c4ccc(C#N)c5ncccc45)C[C@@H](C)O3)CC2)cc(C)n1` [Example 42, 5-[(2R,6S)-2-methyl-6-[[4-[2-methyl-6-(methylamino)-4-pyridyl]piperazin-1-yl]methyl]morpholin-4-yl]quinoline-8-carbonitrile], with 7.89. Then `Cc1cc(N2CCC3(CN(C[C@H]4CN(c5ccc(C#N)c6ncccc56)C[C@@H](C)O4)C3)C2)cc(C)n1` [Example 9], with 7.80; and `Cc1cc(N2CC(NC[C@H]3CN(c4ccc(C#N)c5ncccc45)C[C@@H](C)O3)CC(F)(F)C2)cc(CO)n1` (stereo partly drawn) [Example 36], with 7.77.
